# Measured values published in US6525001B1, “Substituted pyrimidine and pyridine herbicides” (Mid-American Commercialization Corporation, priority 1997, dated 2003).
# What was measured:
# Type in all cases: in vivo
# Parameters in all cases: key: 0 is no effect; 10 is complete control
# [1] = system: broadleaf signalgrass (Brachiaria decumbens); test: Test B pre-/postemergence
# In short: (§1)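 Compounds in a surfactant-containing, non-phytotoxic solvent blend are applied to freshly planted seed (preemergence) and, concurrently, to seedlings of 2 to 18 cm at 1–4 leaves (postemergence). Plants stay in the greenhouse twelve to sixteen days and are then scored visually from 0 (no effect) to 10 (complete control).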
# rape (Brassica napus) = test: Test B pre-/postemergence
# In short: as §1
# corn (Zea mays) = test: Test B pre-/postemergence
# In short: as §1
# [2] = system: sugar beet (Beta vulgaris); test: Test B pre-/postemergence
# In short: as §1
# [3] = system: velvetleaf (Abutilon theophrasti); test: Test B pre-/postemergence
# In short: as §1
# [4] = system: pigweed (Amaranthus retroflexus); test: Test B pre-/postemergence
# In short: as §1
# [5] = system: momingglory (Ipomoea hederacea); test: Test B pre-/postemergence
# In short: as §1
# [6] = system: wheat (Triticum aestivum); test: Test B pre-/postemergence
# In short: as §1
# [7] = system: bedstraw (Galium aparine); test: Test B pre-/postemergence
# In short: as §1
# [8] = system: cocklebur (Xanthium strumarium); test: Test B pre-/postemergence
# In short: as §1
# [9] = system: giant foxtail (Setaria faberii); test: Test B pre-/postemergence
# In short: as §1
# [10] = system: bamyardgrass (Echinochloa crus-galli); test: Test B flood test
# In short: (§2)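 Read-out is a visual response score from 0 (no effect) to 10 (complete control), assigned by comparison with untreated controls. Treatment was applied at the 2-leaf stage, and plants stayed in the greenhouse for twelve to sixteen days before scoring.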
# rice (Oryza sativa) = test: Test B flood test
# In short: as §2
# [11] = system: smallflower flatsedge (Cyperus difformis); test: Test B flood test
# In short: as §2
# [12] = system: duck salad (Heteranthera limosa); test: Test B flood test
# In short: as §2
# [13] = Rate 62 g/ha, Postemergence (flood test)
# [14] = Rate 125 g/ha, Postemergence, flood test
# [15] = Rate 250 g/ha, Postemergence (flood test species)
# [16] = Rate 500 g/ha, Postemergence (flood test species)
smiles,measurement,setting,value
Cc1cnc(-c2ccc(C(F)(F)F)cc2)nc1Cn1nc(C(F)(F)F)cc1C [Compound 13],"Plant response rating, B. signalgrass","[1]; Rate 62 g/ha, Postemergence",5
same,B. signalgrass plant response rating,"[1]; Rate 62 g/ha, Preemergence",7
same,"Plant response rating, B. signalgrass","[1]; Rate 125 g/ha, Postemergence",5
same,B. signalgrass plant response rating,"[1]; Rate 125 g/ha, Preemergence",8
same,"Plant response rating, B. signalgrass","[1]; Rate 250 g/ha, Postemergence",7
same,"Plant response rating, B. signalgrass","[1]; Rate 250 g/ha, Preemergence",9
same,"Plant response rating, B. signalgrass","[1]; Rate 500 g/ha, Postemergence",8
same,"Plant response rating, B. signalgrass","[1]; Rate 500 g/ha, Preemergence",9
same,"Plant response rating, Rape","rape (Brassica napus); Rate 62 g/ha, Postemergence",6
same,Rape plant response rating,"rape (Brassica napus); Rate 62 g/ha, Preemergence",5
same,"Plant response rating, Rape","rape (Brassica napus); Rate 125 g/ha, Postemergence",8
same,Rape plant response rating,"rape (Brassica napus); Rate 125 g/ha, Preemergence",6
same,"Plant response rating, Rape","rape (Brassica napus); Rate 250 g/ha, Postemergence",9
same,"Plant response rating, Rape","rape (Brassica napus); Rate 250 g/ha, Preemergence",9
same,"Plant response rating, Rape","rape (Brassica napus); Rate 500 g/ha, Postemergence",9
same,"Plant response rating, Rape","rape (Brassica napus); Rate 500 g/ha, Preemergence",9
same,"Plant response rating, Corn","corn (Zea mays); Rate 62 g/ha, Postemergence",3
same,Corn plant response rating,"corn (Zea mays); Rate 62 g/ha, Preemergence",1
same,"Plant response rating, Corn","corn (Zea mays); Rate 125 g/ha, Postemergence",3
same,Corn plant response rating,"corn (Zea mays); Rate 125 g/ha, Preemergence",1
same,"Plant response rating, Corn","corn (Zea mays); Rate 250 g/ha, Postemergence",3
same,"Plant response rating, Corn","corn (Zea mays); Rate 250 g/ha, Preemergence",1
same,"Plant response rating, Corn","corn (Zea mays); Rate 500 g/ha, Postemergence",4
same,"Plant response rating, Corn","corn (Zea mays); Rate 500 g/ha, Preemergence",2
same,"Plant response rating, Sugarbeets","[2]; Rate 62 g/ha, Postemergence",9
same,Sugarbeets plant response rating,"[2]; Rate 62 g/ha, Preemergence",9
same,"Plant response rating, Sugarbeets","[2]; Rate 125 g/ha, Postemergence",10
same,Sugarbeets plant response rating,"[2]; Rate 125 g/ha, Preemergence",10
same,"Plant response rating, Sugarbeets","[2]; Rate 250 g/ha, Postemergence",10
same,"Plant response rating, Sugarbeets","[2]; Rate 250 g/ha, Preemergence",10
same,"Plant response rating, Sugarbeets","[2]; Rate 500 g/ha, Postemergence",10
same,"Plant response rating, Sugarbeets","[2]; Rate 500 g/ha, Preemergence",10
same,"Plant response rating, Velvetleaf","[3]; Rate 62 g/ha, Postemergence",4
same,Velvetleaf plant response rating,"[3]; Rate 62 g/ha, Preemergence",6
same,"Plant response rating, Velvetleaf","[3]; Rate 125 g/ha, Postemergence",4
same,Velvetleaf plant response rating,"[3]; Rate 125 g/ha, Preemergence",7
same,"Plant response rating, Velvetleaf","[3]; Rate 250 g/ha, Postemergence",8
same,"Plant response rating, Velvetleaf","[3]; Rate 250 g/ha, Preemergence",10
same,"Plant response rating, Velvetleaf","[3]; Rate 500 g/ha, Postemergence",8
same,"Plant response rating, Velvetleaf","[3]; Rate 500 g/ha, Preemergence",10
same,"Plant response rating, Redroot pigweed","[4]; Rate 62 g/ha, Postemergence",9
same,Redroot pigweed plant response rating,"[4]; Rate 62 g/ha, Preemergence",7
same,"Plant response rating, Redroot pigweed","[4]; Rate 125 g/ha, Postemergence",9
same,Redroot pigweed plant response rating,"[4]; Rate 125 g/ha, Preemergence",9
same,"Plant response rating, Redroot pigweed","[4]; Rate 250 g/ha, Postemergence",10
same,"Plant response rating, Redroot pigweed","[4]; Rate 250 g/ha, Preemergence",9
same,"Plant response rating, Redroot pigweed","[4]; Rate 500 g/ha, Postemergence",10
same,"Plant response rating, Redroot pigweed","[4]; Rate 500 g/ha, Preemergence",9
same,"Plant response rating, Morningglory","[5]; Rate 62 g/ha, Postemergence",7
same,Morningglory plant response rating,"[5]; Rate 62 g/ha, Preemergence",9
same,"Plant response rating, Morningglory","[5]; Rate 125 g/ha, Postemergence",7
same,Morningglory plant response rating,"[5]; Rate 125 g/ha, Preemergence",10
same,"Plant response rating, Morningglory","[5]; Rate 250 g/ha, Postemergence",9
same,"Plant response rating, Morningglory","[5]; Rate 250 g/ha, Preemergence",9
same,"Plant response rating, Morningglory","[5]; Rate 500 g/ha, Postemergence",9
same,"Plant response rating, Morningglory","[5]; Rate 500 g/ha, Preemergence",10
same,"Plant response rating, Wheat","[6]; Rate 62 g/ha, Postemergence",2
same,Wheat plant response rating,"[6]; Rate 62 g/ha, Preemergence",0
same,"Plant response rating, Wheat","[6]; Rate 125 g/ha, Postemergence",3
same,Wheat plant response rating,"[6]; Rate 125 g/ha, Preemergence",0
same,"Plant response rating, Wheat","[6]; Rate 250 g/ha, Postemergence",3
same,"Plant response rating, Wheat","[6]; Rate 250 g/ha, Preemergence",0
same,"Plant response rating, Wheat","[6]; Rate 500 g/ha, Postemergence",4
same,"Plant response rating, Wheat","[6]; Rate 500 g/ha, Preemergence",1
same,"Plant response rating, Bedstraw","[7]; Rate 62 g/ha, Postemergence",7
same,Bedstraw plant response rating,"[7]; Rate 62 g/ha, Preemergence",1
same,"Plant response rating, Bedstraw","[7]; Rate 125 g/ha, Postemergence",9
same,Bedstraw plant response rating,"[7]; Rate 125 g/ha, Preemergence",2
same,"Plant response rating, Bedstraw","[7]; Rate 250 g/ha, Postemergence",10
same,"Plant response rating, Bedstraw","[7]; Rate 250 g/ha, Preemergence",5
same,"Plant response rating, Bedstraw","[7]; Rate 500 g/ha, Postemergence",10
same,"Plant response rating, Bedstraw","[7]; Rate 500 g/ha, Preemergence",6
same,"Plant response rating, Cocklebur","[8]; Rate 62 g/ha, Postemergence",6
same,Cocklebur plant response rating,"[8]; Rate 62 g/ha, Preemergence",0
same,"Plant response rating, Cocklebur","[8]; Rate 125 g/ha, Postemergence",9
same,"Plant response rating, Cocklebur","[8]; Rate 250 g/ha, Postemergence",9
same,"Plant response rating, Cocklebur","[8]; Rate 250 g/ha, Preemergence",5
same,"Plant response rating, Cocklebur","[8]; Rate 500 g/ha, Postemergence",9
same,"Plant response rating, Cocklebur","[8]; Rate 500 g/ha, Preemergence",7
same,"Plant response rating, Giant foxtail","[9]; Rate 62 g/ha, Postemergence",2
same,Giant foxtail plant response rating,"[9]; Rate 62 g/ha, Preemergence",9
same,"Plant response rating, Giant foxtail","[9]; Rate 125 g/ha, Postemergence",3
same,Giant foxtail plant response rating,"[9]; Rate 125 g/ha, Preemergence",10
same,"Plant response rating, Giant foxtail","[9]; Rate 250 g/ha, Postemergence",4
same,"Plant response rating, Giant foxtail","[9]; Rate 250 g/ha, Preemergence",10
same,"Plant response rating, Giant foxtail","[9]; Rate 500 g/ha, Postemergence",5
same,"Plant response rating, Giant foxtail","[9]; Rate 500 g/ha, Preemergence",10
same,"Plant response rating, Barnyardgrass",[10]; [13],2
same,"Plant response rating, Barnyardgrass",[10]; [14],2
same,"Plant response rating, Barnyardgrass",[10]; [15],3
same,"Plant response rating, Barnyardgrass",[10]; [16],3
same,"Plant response rating, Rice",rice (Oryza sativa); [13],0
same,"Plant response rating, Rice",rice (Oryza sativa); [14],0
same,"Plant response rating, Rice",rice (Oryza sativa); [15],0
same,"Plant response rating, Rice",rice (Oryza sativa); [16],1
same,"Plant response rating, S. Flatsedge",[11]; [13],2
same,"Plant response rating, S. Flatsedge",[11]; [14],4
same,"Plant response rating, S. Flatsedge",[11]; [15],4
same,"Plant response rating, S. Flatsedge",[11]; [16],5
same,"Plant response rating, Ducksalad",[12]; [13],0
same,"Plant response rating, Ducksalad",[12]; [14],1
same,"Plant response rating, Ducksalad",[12]; [15],2
same,"Plant response rating, Ducksalad",[12]; [16],3
